Assay results published in PubChem BioAssay AID1963858 (Molecular Pharmacology Branch, DTP, NCI, 2024).

Test system: HOP-62 multicell spheroids with HUVEC/MSC, viability
Experiment: Anticancer human tumor HOP-62 cell line growth inhibition [KRAS2];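 also: viability read after a week of compound exposure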;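 as to viability, T/C: 100% = DMSO vehicle-treated spheroids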
Details: for IC50: curve of first compound; for viability, T/C: stronger effect = lower value
Source text: Multicellular complex tumor spheroid response to RAS pathway inhibitors in combination with a targeted agents in patient-derived cell lines with oncogenic KRAS variants from multiple cancer types
A high-throughput screen of multi-cell type tumor spheroids was designed to identify active combinations of targeted small molecules and KRAS pathway inhibitors. Complex spheroids include a stromal component modeled by human endothelial cells (HUVEC) and fibroblasts modeled by human mesenchymal stem cells (MSCs). The concentration ranges selected for each drug and investigational agent were based upon clinically achievable concentrations if the clinical Cmax of the agent was known.
Compounds. The drugs and investigational agents: BI-3406 (NSC825286), BAY-293 (NSC824723), batoprotafib (TNO155; NSC825523), sotorasib (AMG 510; NSC818433), MRTX1257 (NSC819558), elimusertib (BAY 1895344; NSC800525), molibresib (GSK525762; NSC774829), temuterkib (LY3214996; NSC803410), venetoclax (NSC766270), alisertib (NSC759677), olaparib (NSC753686), talazoparib (NSC767125), erdafitinib (NSC781556), ipatasertib (NSC767898), cabozantinib (NSC761068), nintedanib (NSC756659), abemaciclib (NSC768073), docetaxel (NSC628503), trametinib (NSC758246), and sapanisertib (NSC764658) were obtained from the National Cancer Institute (NCI) Developmental Therapeutics Program Chemical Repository. The FDA-approved anticancer drug set is available from the Developmental Therapeutics Program. […] The stock solutions were prepared in dimethyl sulfoxide (DMSO, Sigma-Aldrich, St. Louis, MO, cat. D2650) at 800-fold the tested concentration and stored at -70 degrees C prior to their use. All drugs and investigational agents were tested over a range starting from a high concentration at or near the clinical Cmax and decreasing in half-log increments. If the clinical Cmax for an agent had not been determined, the highest concentration tested was 10 microM.
Cell Culture. All cells were maintained in an incubator at 37 degrees C and 5% CO2 with 95% humidity. The PDC lines were cultured according to standard operating procedures established by the NCI PDMR (https://pdmr.cancer.gov/sops/default.htm). Briefly, all PDCs were thawed and cultured in Matrigel-coated flasks prepared with a working solution of 1X Ham's F-12 nutrient mix, without supplementation (Invitrogen, Waltham, MA, cat. 11765054), 100 U/mL penicillin-streptomycin (Invitrogen, cat. 15140122), and 2.5% Matrigel (Corning Inc., Corning, NY, cat. 354248) for the first three passages. All PDCs were cultured in complete DMEM/F-12 media containing advanced DMEM/F-12 (Invitrogen, cat. 12634028), 4.9% defined fetal bovine serum, heat inactivated (HyClone Laboratories Inc., Logan, UT, cat. SH30070.03HI), 389 ng/mL hydrocortisone (Sigma-Aldrich, cat. H4001), 9.7 ng/mL human EGF recombinant protein (Invitrogen, cat. PHG0313), 23.4 microg/mL adenine (Sigma-Aldrich, cat. A2786), 97.3 U/mL penicillin-streptomycin (Invitrogen, cat. 15140122), 1.9 mM L-glutamine (Invitrogen, cat. 25030081), and 9.7 microM Y-27632 dihydrochloride (Tocris Bioscience, Bristol, United Kingdom, cat. 1254). The PDCs were cultured in complete DMEM/F12 media without 9.7 microM Y-27632 dihydrochloride for at least two passages prior to the screen. The established cell line HOP-62 was cultured in RPMI 1640 medium, HEPES (Invitrogen, cat. 22400105) with 10% defined fetal bovine serum (HyClone Laboratories Inc., cat. SH30070.03) and 2 mM L-glutamine (Invitrogen, cat. 25030081). The pooled donor HUVEC were cultured in endothelial cell growth medium 2 (PromoCell, Heidelberg, Germany, cat. C-22011) and the hMSC were cultured in mesenchymal stem cell growth medium 2 (PromoCell, cat. C-28009). For all experiments, HUVEC and hMSC were used at passages </=5, while the malignant cell lines were used at passages </=15. […]

[1] = second compound 0.1 µM, first compound 0.01 µM
[2] = second compound 0.1 µM, first compound 0.0316 µM
[3] = second compound 0.1 µM, first compound 0.1 µM
[4] = second compound 0.1 µM, first compound 0.316 µM
[5] = second compound 0.1 µM, first compound 1 µM
[6] = second compound 0.1 µM, first compound 3.16 µM
[7] = second compound 0.316 µM, first compound 0.01 µM
[8] = second compound 0.316 µM, first compound 0.0316 µM
[9] = second compound 0.316 µM, first compound 0.1 µM
[10] = second compound 0.316 µM, first compound 0.316 µM
[11] = second compound 0.316 µM, first compound 1 µM
[12] = second compound 0.316 µM, first compound 3.16 µM
[13] = second compound 1 µM, first compound 0.01 µM
[14] = second compound 1 µM, first compound 0.0316 µM
[15] = second compound 1 µM, first compound 0.1 µM
[16] = second compound 1 µM, first compound 0.316 µM
[17] = second compound 1 µM, first compound 1 µM
[18] = second compound 1 µM, first compound 3.16 µM
[19] = second compound 3.16 µM, first compound 0.01 µM
[20] = second compound 3.16 µM, first compound 0.0316 µM
[21] = second compound 3.16 µM, first compound 0.1 µM
[22] = second compound 3.16 µM, first compound 0.316 µM
[23] = second compound 3.16 µM, first compound 1 µM
[24] = second compound 3.16 µM, first compound 3.16 µM
[25] = second compound 10 µM, first compound 0.01 µM
[26] = second compound 10 µM, first compound 0.0316 µM
[27] = second compound 10 µM, first compound 0.1 µM
[28] = second compound 10 µM, first compound 0.316 µM
[29] = second compound 10 µM, first compound 1 µM
[30] = second compound 10 µM, first compound 3.16 µM
[31] = second compound 0.1 µM, first compound 10 µM
[32] = second compound 0.316 µM, first compound 10 µM
[33] = second compound 1 µM, first compound 10 µM
[34] = second compound 3.16 µM, first compound 10 µM
[35] = second compound 10 µM, first compound 10 µM

Compound	IC50 (second compound 0.1 µM)	IC50 (second compound 0.316 µM)	IC50 (second compound 1 µM)	IC50 (second compound 3.16 µM)	IC50 (second compound 10 µM)	viability, T/C [2]	viability, T/C [3]	viability, T/C [4]	viability, T/C [5]	viability, T/C [8]	viability, T/C [9]	viability, T/C [10]	viability, T/C [11]	viability, T/C [14]	viability, T/C [15]	viability, T/C [16]	viability, T/C [17]	viability, T/C [20]	viability, T/C [21]	viability, T/C [22]	also measured
CC1COCCN1c1cc(-c2ccnn2C)c2ccnc(-c3ccn[nH]3)c2n1 (stereo not given) + C=CC(=O)N1CCN(c2nc(=O)n(-c3c(C)ccnc3C(C)C)c3nc(-c4c(O)cccc4F)c(F)cc23)C(C)C1	27.2 nM	33.2 nM	23.3 nM	12 nM	< 10 nM	48.3%	15.2%	11.7%	11.4%	51.5%	19.5%	12.7%	10.7%	44.2%	19.3%	11.1%	10.5%	33.5%	15.5%	11.7%	viability, T/C [1]: 61.3%; viability, T/C [6]: 8.87%; viability, T/C [7]: 66.7%; viability, T/C [12]: 9.1%; viability, T/C [13]: 65.9%; viability, T/C [18]: 10.7%; viability, T/C [19]: 53.1%; viability, T/C [23]: 13.3%; viability, T/C [24]: 12.1%; viability, T/C [25]: 33%; viability, T/C [26]: 23.9%; viability, T/C [27]: 18.1%; viability, T/C [28]: 15.5%; viability, T/C [29]: 13.8%; viability, T/C [30]: 11.3%
CCN1CCN(Cc2ccc(Nc3ncc(F)c(-c4cc(F)c5nc(C)n(C(C)C)c5c4)n3)nc2)CC1 + C=CC(=O)N1CCN(c2nc(=O)n(-c3c(C)ccnc3C(C)C)c3nc(-c4c(O)cccc4F)c(F)cc23)C(C)C1	150 nM	39.5 nM	501 nM	543 nM	< 3.16 nM	49.4%	50.5%	51.3%	40.5%	50.6%	48%	49.8%	44.3%	51.7%	60%	57.1%	39.3%	57.4%	53.5%	63.4%	viability, T/C (second compound 0.1 µM, first compound 0.00316 µM): 58%; viability, T/C [1]: 53.3%; viability, T/C (second compound 0.316 µM, first compound 0.00316 µM): 72.5%; viability, T/C [7]: 69.4%; viability, T/C (second compound 1 µM, first compound 0.00316 µM): 64.9%; viability, T/C [13]: 59.2%; viability, T/C (second compound 3.16 µM, first compound 0.00316 µM): 70.4%; viability, T/C [19]: 63.6%; viability, T/C [23]: 36.9%; viability, T/C (second compound 10 µM, first compound 0.00316 µM): 51.9%; viability, T/C [25]: 41.6%; viability, T/C [26]: 42.1%; viability, T/C [27]: 39.6%; viability, T/C [28]: 38.2%; viability, T/C [29]: 22.7%
CCNC(=O)CC1N=C(c2ccc(Cl)cc2)c2cc(OC)ccc2-n2c(C)nnc21 (stereo not given) + C=CC(=O)N1CCN(c2nc(=O)n(-c3c(C)ccnc3C(C)C)c3nc(-c4c(O)cccc4F)c(F)cc23)C(C)C1	74.2 nM	72.7 nM	66.1 nM	129 nM	< 31.6 nM	67.2%	42.7%	33.2%	22.6%	71.2%	41.1%	30.1%	24.9%	60.6%	45%	32.5%	24.6%	71.4%	53.6%	36.8%	viability, T/C [6]: 19.3%; viability, T/C [31]: 19.4%; viability, T/C [12]: 21.9%; viability, T/C [32]: 20.4%; viability, T/C [18]: 23%; viability, T/C [33]: 19.8%; viability, T/C [23]: 23.3%; viability, T/C [24]: 23.1%; viability, T/C [34]: 19.2%; viability, T/C [26]: 39.2%; viability, T/C [27]: 36.9%; viability, T/C [28]: 25.3%; viability, T/C [29]: 22.2%; viability, T/C [30]: 17.1%; viability, T/C [35]: 17.4%
Cn1nccc1Nc1nccc(-c2cc3c(s2)C(C)(C)N(CCN2CCOCC2)C3=O)n1 + C=CC(=O)N1CCN(c2nc(=O)n(-c3c(C)ccnc3C(C)C)c3nc(-c4c(O)cccc4F)c(F)cc23)C(C)C1	153 nM	253 nM	153 nM	361 nM	< 31.6 nM	63.7%	56.7%	38.6%	23.9%	64.5%	61.5%	47.3%	27.2%	63.7%	54.4%	41.3%	31.3%	50%	55%	52.1%	viability, T/C [6]: 16.5%; viability, T/C [31]: 17.1%; viability, T/C [12]: 20.4%; viability, T/C [32]: 17%; viability, T/C [18]: 18.4%; viability, T/C [33]: 24.6%; viability, T/C [23]: 34%; viability, T/C [24]: 25.2%; viability, T/C [34]: 25%; viability, T/C [26]: 46.1%; viability, T/C [27]: 41.5%; viability, T/C [28]: 33.8%; viability, T/C [29]: 28.2%; viability, T/C [30]: 27.6%; viability, T/C [35]: 34.4%
